# Read-outs that look alike come from different tables or passages of the source.
# Legend:
# Assay type in all cases: cell-based, human
# RT-4 cells = assay: Cell cycle analysis by flow cytometry (PI staining) after HU exposure and withdrawal; conditions: 1 mM HU for 20 hours, wash, 2-10 hours without drug, majority in S phase 4 to 8 hours after wash
# Experimental: (§1) The human bladder cancer cell lines, UM-UC-3 and RT-4, were obtained from the ATCC and grown in RPMI 1640 medium (Gibco) supplemented with 10% v/v fetal calf serum (Gibco), 100 U/ml penicillin and 100 µg/ml streptomycin (Biological Industries). Cells were grown at 37° C., 5% CO2 in a humidified atmosphere and harvested using 0.25% w/v trypsin, 0.02% w/v EDTA. Cells were washed in media to inactivate trypsin before reseeding or analysis. A LSRII Flow cytometer or Cyan Flow Cytometer were used for determining DNA content and cell cycle distribution of UM-UC-3 and RT-4 cells. Cells were seeded in 6 well plates (10^6 cells/well) and incubated overnight. […] When sequential treatment was done, the second drug was administered immediately or 2-48 hours following the wash of the 1st treatment. The 2nd treatment was then applied for additional 2-48 hrs before analysis. […] PI staining was identified by using the red fluorescence (585+/−40 nm). In some experiments, cells harvested as for cell cycle determination were also stained with Annexin V or anti-activated Caspase-3 antibody for identifying apoptotic cells. Annexin V or activated Caspase-3 positive cells were identified using the green fluorescence (530+/−30 nm).
# UM-UC-3 cells [1] = assay: as above; conditions: 1 mM HU for 20 hours, wash, 2-10 hours without drug, majority in S phase 4 to 8 hours after wash
# Experimental: as §1
# UM-UC-3 cells [2] = assay: XTT cytotoxicity assay; conditions: for viability at 1000 µM: Homo sapiens, 1 mM HU 20 hours, wash, untreated cells = 100%; for EC50: read-out: EC50 (cell viability)
# Experimental: Cells were washed in media to inactivate trypsin before reseeding or analysis.
# Hydroxyurea concentrations were selected based upon concentration ranges known in the art.
# XTT assay for cytotoxicity was then performed and plates were analyzed in an ELISA reader at a wave length of 490 nm.
# Cells were pretreated with 1 mM HU (or DMSO-vehicle control) for 20 hours. […] The percentage of viable cells presented was calculated from untreated cells with viability of 100%.
# UM-UC-3 cells were cultured in 96 well microculture plates. Cells were pretreated with 1 mM HU (or DMSO-vehicle control) for 20 hours. Cells were then washed. […] The percentage of viable cells presented was calculated from untreated cells with viability of 100%.
# The methods used were as described in the other examples. Briefly, UM-UC-3 cells were cultured in 96 well microculture plates. Cells were pretreated with 1 mM HU (or DMSO-vehicle control) for 2 hours. […] The percentage of viable cells presented in the figures and table was calculated from untreated cells with viability of 100%.
Compound,cell cycle arrest / synchronization in S phase (RT-4 cells),cell cycle arrest / synchronization in S phase (UM-UC-3 cells [1]),"viability at 1000 µM (UM-UC-3 cells [2]; UMUC3, Example 3: UM-UC-3, 20 μM MMC, XTT 24 hours after MMC addition)","viability at 1000 µM (UM-UC-3 cells [2]; UMUC3, Example 4: UM-UC-3, 2 hours delay, 10 μM MMC 8 hours, XTT 48 hours after MMC addition)","EC50 (UM-UC-3 cells [2]; Example 3 conditions: UM-UC-3, MMC 24 hours, XTT)","EC50 (UM-UC-3 cells [2]; Example 4 conditions: UM-UC-3, MMC 8 hours, XTT 48 hours after MMC addition)"
"NC(=O)NO [HU, Hydroxyurea]",cell cycle synchronization at the S phase,cell cycle synchronization at the S phase,76.5%,59.6%,–,–
"CO[C@@]12[C@H](COC(N)=O)C3=C(C(=O)C(C)=C(N)C3=O)N1C[C@@H]1N[C@@H]12 [MMC, Mitomycin C]",–,–,–,–,~20 µM,10 µM
